From EP4775582A1, “MACROCYCLIC COMPOUND AND ANTIBODY-DRUG CONJUGATE THEREOF” (Genfleet Therapeutics (Shanghai) Inc., priority 2023, dated 2025)
Read-outs that look alike come from different tables or passages of the source.

Columns and labels:
KRAS G12V-cRAF = KRAS G12V-cRAF (Homo sapiens, UniProt P01116+P62937, G12V); experiment: Assay for binding of KRAS to cRAF (HTRF, with Cyclophilin A), KRAS G12V
Protocol: (§3) The plate was centrifuged at 1000 rpm for 1 min and then incubated in the thermostatic incubator at 20 °C for 30 min. […] The plate was centrifuged at 1000 rpm for 1 min and then incubated in the thermostatic incubator at 20 °C for 60 min. […] The working solution was added to the aforementioned assay plate at 5 µL/well. The plate was centrifuged at 1000 rpm for 1 min and then incubated in the thermostatic incubator at 20 °C for 60 min.

AsPC-1 cells = experiment: 3D cell proliferation assay (CellTiter Glo-3D), AsPC-1; format: cell-based, human; conditions: Homo sapiens, ASPC1, 120 h
Outline: (§1)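 Cells seeded at 800 per well (AsPC-1, NCI-H441) in 2% FBS medium and incubated overnight at 37 °C, 5% CO2. Compounds added next day from 10× stock, then 5 days' further culture. Viability read by CellTiter-Glo luminescence; IC50 from four-parameter fit of inhibition versus log concentration.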

AsPC-1 p-ERK = experiment: Cell p-ERK assay (HTRF), AsPC-1 cells; format: cell-based, human; conditions: Homo sapiens
Outline: (§2)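 AsPC-1 (10000/well) or NCI-H441 (20000/well) cells were seeded overnight and then exposed to compound for 3 h at 37 °C. Lysates were probed for ERK phospho-T202/Y204 by HTRF with a 4-hour antibody incubation. IC50 values came from four-parameter fits of inhibition against log concentration.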

KRAS WT-cRAF = KRAS WT-cRAF (Homo sapiens, UniProt P01116+P62937); experiment: Assay for binding of KRAS to cRAF (HTRF, with Cyclophilin A), KRAS WT
Protocol: as §3

NCI-H441 cells = experiment: 3D cell proliferation assay (CellTiter Glo-3D), NCI-H441; format: cell-based, human; conditions: Homo sapiens, 120 h, NCI-H441 cells (KRAS G12V), 2% FBS, 5 days, read-out: H441 AP IC50
Outline: as §1

H441 p-ERK = experiment: Cell p-ERK assay (HTRF), NCI-H441 cells; format: cell-based, human; conditions: Homo sapiens; NCI-H441 cells (KRAS G12V), 3 h incubation
Outline: as §2

[1] = read-out: KRAS G12V-cRAF binding assay, GPPNP-KRAS G12V, IC50 values
[2] = read-out: KRAS WT-cRAF binding assay, GPPNP-KRAS WT, IC50 values
[3] = AsPC-1 cells (KRAS G12D), 3D, 2% FBS, 5 days, read-out: AsPC-1 AP IC50
[4] = ASPC1, AsPC-1 cells (KRAS G12D), 3 h incubation, read-out: AsPC-1 p-ERK IC50
[5] = KRAS G12V-cRAF binding assay(nM), GPPNP-KRAS G12V, IC50 values
[6] = KRAS WT-cRAF binding assay(nM), GPPNP-KRAS WT, IC50 values

Chain of KRAS G12V-cRAF (P01116 1-188 isoform P01116-2 G12V): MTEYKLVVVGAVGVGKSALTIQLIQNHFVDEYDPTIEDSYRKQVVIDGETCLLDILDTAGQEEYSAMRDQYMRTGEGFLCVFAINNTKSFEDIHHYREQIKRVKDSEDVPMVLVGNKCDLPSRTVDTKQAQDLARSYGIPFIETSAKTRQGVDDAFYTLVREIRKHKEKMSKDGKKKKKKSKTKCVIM
Chain of KRAS G12V-cRAF (P62937 whole entry): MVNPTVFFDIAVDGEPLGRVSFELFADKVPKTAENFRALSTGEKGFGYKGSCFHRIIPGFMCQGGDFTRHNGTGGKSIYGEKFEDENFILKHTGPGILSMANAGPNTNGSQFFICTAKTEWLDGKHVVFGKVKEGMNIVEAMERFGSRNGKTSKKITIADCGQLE
Chain of KRAS WT-cRAF (P01116 1-188 isoform P01116-2): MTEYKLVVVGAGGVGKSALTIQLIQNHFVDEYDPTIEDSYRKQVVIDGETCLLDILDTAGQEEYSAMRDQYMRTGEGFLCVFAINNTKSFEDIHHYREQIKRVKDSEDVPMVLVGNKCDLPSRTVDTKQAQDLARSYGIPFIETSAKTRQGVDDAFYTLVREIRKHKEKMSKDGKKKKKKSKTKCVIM
Chain of KRAS WT-cRAF (P62937 whole entry): as the sequence (P62937 whole entry) above

| IC50 (KRAS G12V-cRAF; [1]) | IC50 (AsPC-1 cells; read-out: AsPC-1 AP IC50(nM)) | IC50 (AsPC-1 p-ERK; ASPC1, 3 h, read-out: AsPC-1 p-ERK IC50(nM)) | IC50 (KRAS WT-cRAF; [2]) | IC50 (NCI-H441 cells) | IC50 (H441 p-ERK) | IC50 (AsPC-1 cells; [3]) | IC50 (AsPC-1 p-ERK; [4]) | IC50 (KRAS G12V-cRAF; [5]) | IC50 (KRAS WT-cRAF; [6]) | SMILES |
| --- | --- | --- | --- | --- | --- | --- | --- | --- | --- | --- |
| 17.5 nM | – | – | 58.2 nM | – | – | – | – | – | – | CCn1c(-c2cc(C#CCN3CCC(C#N)CC3)cnc2[C@H](C)NC)c2c3cc(ccc31)-c1csc(n1)C[C@H](NC(=O)[C@H]1[C@@H]3COC[C@@H]31)C(=O)N1CCC[C@H](N1)C(=O)OCC(C)(C)C2 (atropisomer, axis not shown; (Ra)) [Compound Z169-1, (1R,5S,6r)-N-((6^3S,4S,Z)-(Ra)-1^2-(5-(3-(4-cyanopiperidin-1-yl)prop-1-yn-1-yl)-2-((S)-1-(methylamino)ethyl)pyridin-3-yl)-1^1-ethyl-10,10-dimethyl-5,7-dioxo-6^1,6^2,6^3,6^4,6^5,6^6-hexahydro-1^1H-8-oxa-2(4,2)-thiazola-1(5,3)-indola-6(1,3)-pyridazinacycloundecaphane-4-yl)-3-oxabicyclo[3.1.0]hexane-6-carboxamide] |
| – | – | – | – | – | – | – | – | 8.29 nM | 18.7 nM | CCn1c(-c2cc(C#CCN3CCC(C#N)CC3)cnc2C(C)OC)c2c3cc(ccc31)-c1coc(n1)CC(NC(=O)C1C(C)C1C)C(=O)N1CCCC(N1)C(=O)OCC(C)(C)C2 (atropisomer, axis not shown; (Ra)) [Compound Z155, (1r,2R,3S)-N-((6^3S,4S,Z)-(Ra)^2-(5-(3-(4-cyanopiperidin-1-yl)prop-1-yn-1-yl)-2-((S)-1-methoxyethyl)pyridin-3-yl)-1^1-ethyl-10,10-dimethyl-5,7-dioxo-6^1,6^2,6^3,6^4,6^5,6^6-hexahydro-1^1H-8-oxa-2(4,2)-oxazola-1(5,3)-indola-6(1,3)-pyridazinacycloundecaphan-4-yl)-2,3-dimethylcyclopropanecarboxamide] |
| – | – | – | – | – | 0.09 nM | – | 0.03 nM | 7.75 nM | 16.4 nM | CCn1c(-c2cc(C#CCN3CCC(C#N)CC3)cnc2C(C)OC)c2c3cc(ccc31)-c1coc(n1)CC(NC(=O)C1C3COCC31)C(=O)N1CCCC(N1)C(=O)OCC(C)(C)C2 (atropisomer, axis not shown; (Ra)) [Compound Z168, (1R,5S,6r)-N-((6^3S,4S,Z)-(Ra)-1^2-(5-(3-(4-cyanopiperidin-1-yl)prop-1-yn-1-yl)-2-((S)-1-methoxyethyl)-pyridin-3-yl)-1^1-ethyl-10,10-dimethyl-5,7-dioxo-6^1,6^2,6^3,6^4,6^5,6^6-hexahydro-1^1H-8-oxa-2(4,2)-oxazola-1(5,3)-indola-6(1,3)-pyridazinacycloundecaphane-4-yl)-3-oxabicyclo[3.1.0]hexane-6-carboxamide] |

The remaining lines, values behind:

| SMILES | IC50 (KRAS G12V-cRAF; [1]) | IC50 (AsPC-1 cells; read-out: AsPC-1 AP IC50(nM)) | IC50 (AsPC-1 p-ERK; ASPC1, 3 h, read-out: AsPC-1 p-ERK IC50(nM)) | IC50 (KRAS WT-cRAF; [2]) | IC50 (NCI-H441 cells) | IC50 (H441 p-ERK) | IC50 (AsPC-1 cells; [3]) | IC50 (AsPC-1 p-ERK; [4]) | IC50 (KRAS G12V-cRAF; [5]) | IC50 (KRAS WT-cRAF; [6]) |
| --- | --- | --- | --- | --- | --- | --- | --- | --- | --- | --- |
| CCn1c(-c2cc(C#CCN3CCS(=O)(=O)CC3)cnc2[C@H](C)OC)c2c3cc(ccc31)-c1csc(n1)[C@@H](N)[C@H](NC(=O)[C@H]1[C@H](C)[C@@H]1C)C(=O)N1CCC[C@H](N1)C(=O)OCC(C)(C)C2 (atropisomer, axis not shown; (Ra)) [Compound Z65, (1r,2R,3S)-N-((6^3S,3S,4S,Z)-3-amino-(Ra)-1^2-(5-(3-(1,1-dioxidothiomorpholino)prop-1-yn-1-yl)-2-((S)-1-methoxyethyl)pyridin-3-yl)-1^1-ethyl-10,10-dimethyl-5,7-dioxo-6^1,6^2,6^3,6^4,6^5,6^6-hexahydro-11H-8-oxa-2(4,2)-thiazola-1(5,3)-indola-6(1,3)-pyridazinacycloundecaphane-4-yl)-2,3-dimethylcyclopropane-1-carboxamide] | 5 nM | 0.15 nM | 0.06 nM | 22.9 nM | 0.25 nM | 0.14 nM | – | – | – | – |
| CCn1c(-c2cc(C#CCN3CCC(C#N)(CN)CC3)c[n+]([O-])c2[C@H](C)OC)c2c3cc(ccc31)-c1csc(n1)C[C@H](NC(=O)[C@H]1[C@H](C)[C@@H]1C)C(=O)N1CCC[C@H](N1)C(=O)OCC(C)(C)C2 (atropisomer, axis not shown; (Ra)) [Compound Z57, 5-(3-(4-(aminomethyl)-4-cyanopiperidin-1-yl)prop-1-yn-1-yl)-(Ra)-3-((6^3S,4S,Z)-4-((1r,2R,3S)-2,3-dimethylcyclopropane-1-carboxamido)-1^1-ethyl-10,10-dimethyl-5,7-dioxo-6^1,6^2,6^3,6^4,6^5,6^6-hexahydro-1^1H-8-oxa-2(4,2)-thiazola-1(5,3)-indola-6(1,3)-pyridazinacycloundecaphane-1^2-yl)-2-((S)-1-methoxyethyl)pyridine 1-oxide] | 6.3 nM | – | – | 38.8 nM | 1.34 nM | 1.47 nM | 0.47 nM | 0.81 nM | – | – |
| COCCn1c(-c2cc(C#CCN3CCC(C#N)(CO)CC3)cnc2C(C)OC)c2c3cc(ccc31)-c1csc(n1)CC(NC(=O)C1C(C)C1C)C(=O)N1CCCC(N1)C(=O)OCC(C)(C)C2 [Compound Z29, (1r,2R,3S)-N-((6^3S,4S,Z)-1^2-(5-(3-(4-cyano-4-(hydroxymethyl)piperidin-1-yl)prop-1-yn-1-yl)-2-((S)-1-methoxyethyl)pyridin-3-yl)-1^1-(methoxyethyl)-10,10-dimethyl-5,7-dioxo-6^1,6^2,6^3,6^4,6^5,6^6-hexahydro-1^1H-8-oxa-2(4,2)-thiazola-1(5,3)-indola-6(1,3)-pyridazinacycloundecaphane-4-yl)-2,3-dimethylcyclopropane-1-carboxamide] | – | – | – | – | 0.21 nM | 0.38 nM | 0.09 nM | 0.07 nM | 18.5 nM | 37 nM |
| CCn1c(-c2cc(C#CCN3CCS(=O)(=O)CC3)cnc2C(C)OC)c2c3cc(ccc31)-c1cc(N)cc(c1)CC(NC(=O)C1C(C)C1C)C(=O)N1CCCC(N1)C(=O)OCC(C)(C)C2 (atropisomer, axis not shown; (Ra)) [Compound Z22, (1r,2R,3S)-N-((6^3S,4S)-2^5-amino-(Ra)-1^2-(5-(3-(1,1-dioxidothiomorpholino)prop-1-yn-1-yl)-2-((S)-1-methoxyethyl)pyridin-3-yl)-1^1-ethyl-10,10-dimethyl-5,7-dioxo-6^1,6^2,6^3,6^4,6^5,6^6-hexahydro-1^1H-8-oxa-1(5,3)-indola-6(1,3)-pyridazina-2(1,3)-benzenacycloundecaphane-4-yl)-2,3-dimethylcyclopropane-1-carboxamide] | – | – | – | – | 2.31 nM | 1.09 nM | 8.37 nM | 1.54 nM | 18.6 nM | 47.5 nM |
| CCn1c(-c2cc(C#CCN3CCC(C#N)(CO)CC3)cnc2[C@H](C)OC)c2c3cc(ccc31)-c1csc(n1)C[C@H](NC(=O)[C@H]1[C@@H]3COC[C@@H]31)C(=O)N1CCC[C@H](N1)C(=O)OCC(C)(C)C2 (atropisomer, axis not shown) [Compound Z39] | 9.1 nM | – | – | 22.1 nM | – | – | – | – | – | – |
| CCn1c(-c2cc(C#CCN3CCS(=O)(=O)CC3)cnc2C(C)OC)c2c3cc(ccc31)-c1csc(n1)CC(NC(=O)C1C(C)C1C(=O)NCCO)C(=O)N1CCCC(N1)C(=O)OCC(C)(C)C2 (atropisomer, axis not shown; (Ra)) [Compound Z13-2, (1S,2S,3R)-N^1-((6^3S,4S,Z)-(Ra)-1^2-(5-(3-(1,1-dioxidothiomorpholino)prop-1-yn-1-yl)-2-((S)-1-methoxyethyl)pyridin-3-yl)-1^1-ethyl-10,10-dimethyl-5,7-dioxo-6^1,6^2,6^3,6^4,6^5,6^6-hexahydro-1^1H-8-oxa-2(4,2)-thiazola-1(5,3)-indola-6(1,3)-pyridazinacycloundecaphane-4-yl)-N^2-(2-hydroxyethyl)-3-methylcyclopropane-1,2-dicarboxamide] | – | – | – | – | – | – | – | – | 5.1 nM | 22.6 nM |
| CCn1c(-c2cc(C#CCN3CCS(=O)(=O)CC3)cnc2C(C)OC)c2c3cc(ccc31)-c1csc(n1)CC(NC(=O)C1C(C)C1C(=O)NCCO)C(=O)N1CCCC(N1)C(=O)OCC(C)(C)C2 (atropisomer, axis not shown; (Ra)) [Compound Z13-1, (1R,2R,3S)-N^1-((6^3S,4S,Z)-(Ra)-1^2-(5-(3-(1,1-dioxidothiomorpholino)prop-1-yn-1-yl)-2-((S)-1-methoxyethyl)pyridin-3-yl)-1^1-ethyl-10,10-dimethyl-5,7-dioxo-6^1,6^2,6^3,6^4,6^5,6^6-hexahydro-1^1H-8-oxa-2(4,2)-thiazola-1(5,3)-indola-6(1,3)-pyridazinacycloundecaphane-4-yl)-N^2-(2-hydroxyethyl)-3-methylcyclopropane-1,2-dicarboxamide] | – | – | – | – | 3.36 nM | – | 3.7 nM | – | 5.2 nM | 21.8 nM |
